The nature of series [1]: Membrane permeabilization in eukaryotic membrane model consisting of single unilamellar vesicle of L-alpha-phosphatidylcholine-cholesterol assessed as 5(6)-carboxyfluorescein release at high peptide-to-lipid ratio after 20 mins by fluorescence assay. Format: ADME, cell membranes.
Series [2] has as its system Escherichia coli. As to the kind of experiment: Antimicrobial activity against Escherichia coli ATCC 25922 after 18 hrs by broth microdilution susceptibility test. The settings on record: ATCC 25922, 18 h. Type of series: functional.
The nature of series [3]: Toxicity in human erythrocytes assessed as hemolytic activity at 30 uM after 60 mins. The settings on record: read-out: Activity. Format: cell-based, Erythrocyte.
The test system of series [4] is Escherichia coli. Description: Antimicrobial activity against Escherichia coli O18K1H7 after 18 hrs by broth microdilution susceptibility test. Type of series: functional. The settings on record: O18K1H7, 18 h.
Series [5] concerns Escherichia coli. Description: Antimicrobial activity against Escherichia coli ML35 after 18 hrs by broth microdilution susceptibility test. Type of series: functional. Particulars: ML35, 18 h; call rule not given here.
A short description of series [6]: Membrane permeabilization in eukaryotic membrane model consisting of single unilamellar vesicle of L-alpha-phosphatidylcholine-cholesterol assessed as 5(6)-carboxyfluorescein release at high peptide-to-lipid ratio after 50 mins by fluorescence assay. Type of series: ADME, cell membranes.
A short description of series [7]: Toxicity in human erythrocytes assessed as hemolytic activity at 300 uM after 60 mins. Type of series: cell-based, Erythrocyte. The settings on record: read-out: Activity.
The subject of series [8] is Salmonella enterica subsp. enterica. As to the kind of experiment: Antimicrobial activity against Salmonella enteritidis PD1 after 18 hrs by broth microdilution susceptibility test. Type of series: functional, Salmonella enterica subsp. enterica serovar Enteritidis. The settings on record: PD1, 18 h.
For series [9] the test system is unchanged. As to the kind of experiment: Antimicrobial activity against Salmonella enteritidis D5 after 18 hrs by broth microdilution susceptibility test. Format: functional, Salmonella enterica subsp. enterica serovar Enteritidis. Particulars: D5, 18 h.
Series [10] can be described thus: Chemical stability assessed as compound degradation at 2 mg/mL within 30 mins by HPLC and ESI-MS analysis in presence of trypsin. Particulars: isolated protein, 0.5 h. Type of series: physicochemical.
Series [11] concerns Salmonella enterica subsp. enterica. Description: Antimicrobial activity against Salmonella Typhimurium ATCC 14028 after 18 hrs by broth microdilution susceptibility test. Format: functional, Salmonella enterica subsp. enterica serovar Typhimurium. Particulars: ATCC 14028, 18 h.
The subject of a further series is Klebsiella pneumoniae. As to the kind of experiment: Antimicrobial activity against Klebsiella pneumoniae 22 after 18 hrs by broth microdilution susceptibility test. Particulars: Klebsiella pneumoniae, 22, 18 h. Type of series: functional.
Series [12] can be described thus: Chemical stability assessed as compound degradation at 2 mg/mL after 24 hrs by HPLC and ESI-MS analysis in presence of trypsin. Type of series: physicochemical. The settings on record: isolated protein.

3 compounds from ChEMBL document CHEMBL1152983, “Substitution of the arginine/leucine residues in apidaecin Ib with peptoid residues: effect on antimicrobial activity, cellular uptake, and proteolytic degradation” (J Med Chem, 2009) can be followed below.

Each structure is given as a SMILES string. Converted amounts (≈) assume the structure as drawn. Starred links: 1 amine or outer side, 2 acyl side, 3 side chain; linkers in the order of their positions; H or OH if unused. Non-standard residues stand in square brackets, D forms with d. Residues, ends and D or L forms follow the SMILES beside them. Gly(N-(CH2)3-guanidino) = N=C(N)NCCCNCC(=O)O; X1 = N=C(N)NCCN(CC(=O)[*:2])[*:1]

For `CC[C@H](C)[C@H](NC(=O)[C@H](Cc1ccc(O)cc1)NC(=O)[C@@H](NC(=O)[C@@H]1CCCN1C(=O)[C@H](CCCNC(=N)N)NC(=O)[C@H](CC(N)=O)NC(=O)[C@H](CC(N)=O)NC(=O)CN)C(C)C)C(=O)N1CCC[C@H]1C(=O)N[C@@H](CCC(N)=O)C(=O)N1CCC[C@H]1C(=O)N[C@@H](CCCNC(=N)N)C(=O)N1CCC[C@H]1C(=O)N1CCC[C@H]1C(=O)N[C@@H](Cc1cnc[nH]1)C(=O)N1CCC[C@H]1C(=O)N[C@@H](CCCNC(=N)N)C(=O)N[C@@H](CC(C)C)C(=O)O` [APIDAECIN], the Activity entry in series [1] and in series [6] was “Not Active” each time. Further, the MIC came out at 8 µM (≈ 16.9 µg/mL) against Escherichia coli [2]; 8 µM (≈ 16.9 µg/mL) in the series on Escherichia coli [4]; 8 µM (≈ 16.9 µg/mL) in the series with Escherichia coli [5]; 8 µM (≈ 16.9 µg/mL) in series [8]; 8 µM (≈ 16.9 µg/mL) in series [9]; 4 µM (≈ 8.43 µg/mL) in series [11]. The compound further showed an MIC in the series with Klebsiella pneumoniae of 64 µM (≈ 135 µg/mL). Also, the hemolysis at 1 h, 30 µM in [3] was no more than 2%. Also, the hemolysis at 1 h, 300 µM in series [7] stood at 1.19%. Besides, the Stability result in [10] is listed as “Unstable”.

As to `CC[C@H](C)[C@H](NC(=O)[C@H](Cc1ccc(O)cc1)NC(=O)[C@@H](NC(=O)[C@@H]1CCCN1C(=O)[C@H](CCCNC(=N)N)NC(=O)[C@H](CC(N)=O)NC(=O)[C@H](CC(N)=O)NC(=O)CN)C(C)C)C(=O)N1CCC[C@H]1C(=O)N[C@@H](CCC(N)=O)C(=O)N1CCC[C@H]1C(=O)N(CCNC(=N)N)CC(=O)N1CCC[C@H]1C(=O)N1CCC[C@H]1C(=O)N[C@@H](Cc1cnc[nH]1)C(=O)N1CCC[C@H]1C(=O)N[C@@H](CCCNC(=N)N)C(=O)N[C@@H](CC(C)C)C(=O)O` (H-GNNRPVYIPQP[X1]PPHPRL-OH), the Activity entry in [1] and in series [6] was “Not Active” in each case. The minimum inhibitory concentration (MIC) worked out at 32 µM (≈ 67 µg/mL) against Escherichia coli [2]; 32 µM (≈ 67 µg/mL) with Escherichia coli [4]; 16 µM (≈ 33.5 µg/mL) in the series on Escherichia coli [5]; 64 µM (≈ 134 µg/mL) in series [8]; 64 µM (≈ 134 µg/mL) in series [9]; 32 µM (≈ 67 µg/mL) in [11]. For the same compound, the MIC with Klebsiella pneumoniae was greater than 128 µM. In addition, in series [3], the hemolysis at 1 h, 30 µM is no more than 2%. Also, the hemolysis at 1 h, 300 µM in [7] came to 0.87%.

For the compound `CC[C@H](C)[C@H](NC(=O)[C@H](Cc1ccc(O)cc1)NC(=O)[C@@H](NC(=O)[C@@H]1CCCN1C(=O)[C@H](CCCNC(=N)N)NC(=O)[C@H](CC(N)=O)NC(=O)[C@H](CC(N)=O)NC(=O)CN)C(C)C)C(=O)N1CCC[C@H]1C(=O)N[C@@H](CCC(N)=O)C(=O)N1CCC[C@H]1C(=O)N[C@@H](CCCNC(=N)N)C(=O)N1CCC[C@H]1C(=O)N1CCC[C@H]1C(=O)N[C@@H](Cc1cnc[nH]1)C(=O)N1CCC[C@H]1C(=O)N(CCCNC(=N)N)CC(=O)N[C@@H](CC(C)C)C(=O)O` (H-GNNRPVYIPQPRPPHP[Gly(N-(CH2)3-guanidino)]L-OH), the Activity result in series [1] and in [6] was “Not Active” in each case. Further, the MIC (in the series with Escherichia coli [2]; against Escherichia coli [4]; against Escherichia coli [5]; in [8]; in series [9]; in series [11]) was greater than 128 µM throughout. The MIC against Klebsiella pneumoniae is greater than 128 µM. Further, the hemolysis at 1 h, 30 µM in series [3] is no more than 2%. In addition, the hemolysis at 1 h, 300 µM in [7] came to 0.44%. The Stability entry in series [12] is “Stable”.
